According to article PMC11271627, “Molecular dynamics-guided optimization of BGM0504 enhances dual-target agonism for combating diabetes and obesity” (Scientific Reports, 2024):
Marks after values point to notes of the source that are not given here.

System: STZ + HFD-induced C57BL/6 mice
Test: STZ + HFD-induced diabetes and NASH model in C57BL/6 mice
Format: in vivo
Details: Mean±SEM; for Ballooning Degeneration score / Inflammatory Cell Infiltration score / NAS (NAFLD Activity Score) / Steatosis score: liver H&E staining; for Fibrosis percentage: liver Sirius red staining, fibrosis area of total section area; for ALT / AST: serum; for ALT: HFD 8 weeks
Method: Both the control and model groups received a subcutaneous injection of the drug vehicle, while only the model group was fed a high-fat diet (HFD). […] This experiment involved selecting 30 SPF grade C57BL/6 pregnant female mice provided by Shanghai Jihui Experimental Animal Breeding Co., Ltd. Newborn male mice underwent subcutaneous injection of STZ (streptozotocin) (100 μg each) within 48 hours after birth and were nursed by their mothers for 4 weeks. During this period, we measured the fasting blood glucose of the mice and selected 65 diabetic male mice with fasting blood glucose values greater than or equal to 12 mmol/L as experimental animals. These mice were fed a HFD for 8 weeks to establish the STZ + HFD-induced diabetes and Nonalcoholic Steatohepatitis (NASH) model in male C57BL/6 mice. Fasting blood sugar was detected after 1 week of HFD feeding in these NASH model mice. Based on fasting blood sugar and body weight, they were randomly divided into the model group, the Tirzepatide-0.15 mg/kg group, the BGM0504-0.05 mg/kg group, the BGM0504-0.15 mg/kg group, and the BGM0504-0.5 mg/kg group. The treatment groups received administration once every 3 days. Additionally, their mothers nursed 10 newborn male mice without STZ injection for 4 weeks and then fed a regular maintenance diet as a control group. After HFD feeding, body weights were measured, and the animals’ food intake was recorded every 3 days until the end of the experiment. Three days after the last dose, animal weights were measured. Following a 6-hour fasting period, all experimental animals were anesthetized with an intraperitoneal injection of sodium pentobarbital. Non-anticoagulated whole blood was collected through the orbital venous plexus, left at room temperature for 30 minutes, and centrifuged at 5000 rpm for 5 minutes. The serum was separated and stored at -80°C for biochemical testing. After thawing the frozen serum samples, serum ALT, AST, TG, TC, HDL-c and LDL-c levels […] were measured using a Hitachi 7060 automatic biochemical detector. Insulin content was determined using an enzyme-linked immunoassay kit. After the dissection procedure, the liver was perfused with pre-cooled saline and then obtained and photographed. Its weight was also measured. Subsequently, the liver was immersed in 10% formalin for fixation and divided into two parts. One part underwent pathological hematoxylin and eosin (H&E) staining. The H&E staining was conducted on paraffin sections of all animal livers following the KCI pathology staining standard operating procedure (SOP). These stained sections were panoramically scanned using a NanoZoomer Digital Pathology scanner. Different fields of view were selected for observation at various magnifications, and the liver lobes in the sections were scored. The other part was subjected to pathological Sirius red (SR) staining. Similarly, SR staining was performed on paraffin sections of the liver following the KCI pathology staining SOP. The stained sections were also panoramically scanned using the NanoZoomer Digital Pathology scanner. Subsequently, VIS7.0 software was utilized to analyze the liver fibrosis area in the panoramically examined SR-stained sections, and the percentage of the liver fibrosis area with the total section area was calculated.

[1] = 0.05 mg/kg once every 3 days, n=11
[2] = 0.15 mg/kg once every 3 days, n=13
[3] = 0.5 mg/kg once every 3 days, n=13

Compound: CC[C@H](C)[C@H](NC(=O)[C@H](CC(C)C)NC(=O)[C@H](Cc1c[nH]c2ccccc12)NC(=O)[C@H](CCC(N)=O)NC(=O)[C@@H](NC(=O)[C@H](Cc1ccccc1)NC(=O)[C@H](C)NC(=O)[C@H](CCCCN)NC(=O)[C@H](CCC(N)=O)NC(=O)[C@H](C)NC(=O)[C@@H](NC(=O)[C@H](CCCCN)NC(=O)[C@H](CC(=O)O)NC(=O)[C@H](CC(C)C)NC(=O)C(C)(C)NC(=O)[C@@H](NC(=O)[C@H](CO)NC(=O)[C@H](Cc1ccc(O)cc1)NC(=O)[C@H](CC(=O)O)NC(=O)[C@H](CO)NC(=O)[C@@H](NC(=O)[C@H](Cc1ccccc1)NC(=O)[C@@H](NC(=O)CNC(=O)[C@H](CCC(=O)O)NC(=O)C(C)(C)NC(=O)[C@@H](N)Cc1ccc(O)cc1)[C@@H](C)O)[C@@H](C)O)[C@@H](C)CC)[C@@H](C)CC)C(C)C)C(=O)N[C@@H](C)C(=O)NCC(=O)NCC(=O)N1CCC[C@H]1C(=O)N[C@@H](CO)C(=O)N[C@@H](CO)C(=O)NCC(=O)N[C@@H](C)C(=O)N1CCC[C@H]1C(=O)N1CCC[C@H]1C(=O)N1CCC[C@H]1C(=O)N[C@@H](CO)C(=O)N[C@@H](CCCCNC(=O)COCCOCCOCCNC(=O)COCCOCCOCCNC(=O)CC[C@H](NC(=O)CCCCCCCCCCCCCCCCCCC(=O)O)C(=O)O)C(N)=O [BGM0504]
- HDL-c [1]: 2.30 ± 0.09 mmol/L
- LDL-c [1]: 0.56±0.03^b mmol/L
- TC [1]: 3.81±0.15^c mmol/L
- TG [1]: 1.09±0.20^b mmol/L
- HDL-c [2]: 1.83 ± 0.22 mmol/L
- LDL-c [2]: 0.65±0.10^c mmol/L
- TC [2]: 3.25±0.12^c mmol/L
- TG [2]: 0.84±0.12^b mmol/L
- HDL-c [3]: 2.13 ± 0.13 mmol/L
- LDL-c [3]: 0.62±0.03^c mmol/L
- TC [3]: 3.53±0.09^c mmol/L
- TG [3]: 0.88±0.14^b mmol/L
- Ballooning Degeneration score (0.05 mg/kg, n=11): 0.00±0.00
- Inflammatory Cell Infiltration score (0.05 mg/kg, n=11): 0.91±0.08^a
- NAS (NAFLD Activity Score) (0.05 mg/kg, n=11): 1.42±0.14^a
- Steatosis score (0.05 mg/kg, n=11): 0.52±0.12^a
- Ballooning Degeneration score (0.15 mg/kg, n=13): 0.00±0.00^a
- Inflammatory Cell Infiltration score (0.15 mg/kg, n=13): 0.90±0.06^a
- NAS (NAFLD Activity Score) (0.15 mg/kg, n=13): 1.36±0.15^a
- Steatosis score (0.15 mg/kg, n=13): 0.46±0.13^a
- Ballooning Degeneration score (0.5 mg/kg, n=13): 0.00±0.00
- Inflammatory Cell Infiltration score (0.5 mg/kg, n=13): 1.03±0.05^a
- NAS (NAFLD Activity Score) (0.5 mg/kg, n=13): 1.36±0.10^a
- Steatosis score (0.5 mg/kg, n=13): 0.33±0.08^a
- Fibrosis percentage (0.05 mg/kg, n=11): 1.11±0.05^a %
- Fibrosis percentage (0.15 mg/kg, n=13): 1.10±0.04^b %
- Fibrosis percentage (0.5 mg/kg, n=13): 1.07±0.05^c %
- ALT [1]: 73.97±9.20 U/L
- AST [1]: 155.44±10.85 U/L
- ALT [2]: 67.58±7.73^a U/L
- AST [2]: 152.48±6.56^a U/L
- ALT [3]: 58.46±5.38^b U/L
- AST [3]: 150.54±6.26^a U/L
